The numbers were not newly measured in patent US5922683A, “Multicyclic erythromycin derivatives” (Abbott Laboratories, priority 1998, dated 1999), which cites them from elsewhere.

This series has as its system Gram-negative bacteria. Conditions: cited from earlier work.

Turning to `CC[C@H]1OC(=O)[C@H](C)[C@@H](O[C@H]2C[C@@](C)(OC)[C@@H](O)[C@H](C)O2)[C@H](C)[C@@H](O[C@@H]2O[C@H](C)C[C@H](N(C)C)[C@H]2O)[C@](C)(O)C[C@@H](C)C(=O)[C@H](C)[C@@H](O)[C@]1(C)O` [Ery A, Erythromycin A], the “activity against Gram-negative bacteria” value is on record as “only weak activity”.
